Like-named read-outs stand apart in the source and are kept apart here.
Experiments:
Type in all cases: biochemical
Human PI3K delta = target: T1, Human PI3K delta (Homo sapiens, UniProt O00329); assay: Human PI3K delta enzyme assay (HTRF); conditions: for inhibition at 1 µM: read-out: p110 delta Percent Inhibition
T1 construct: His (N); host or cells: SF9 insect cells (baculovirus)
How it was run: (§1)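 Compounds were mixed with 25 uM ATP, then with 3.5 uM di-C8 PI(4,5)P2 and His-tagged PI3K isoform (β 5.25 nM, δ 0.75 nM, γ 5 nM) at pH 7.00. After 30 min at room temperature, EDTA stopped the reaction and PIP3 was measured by HTRF over 1 h.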

Human PI3K gamma = target: T2, Human PI3K gamma (Homo sapiens, UniProt P48736); assay: Human PI3K gamma enzyme assay (HTRF); conditions: for inhibition at 1 µM: read-out: p110 gamma Percent Inhibition
T2 construct: His (N); host or cells: SF9 insect cells (baculovirus)
T2 sequence (P48736 whole entry): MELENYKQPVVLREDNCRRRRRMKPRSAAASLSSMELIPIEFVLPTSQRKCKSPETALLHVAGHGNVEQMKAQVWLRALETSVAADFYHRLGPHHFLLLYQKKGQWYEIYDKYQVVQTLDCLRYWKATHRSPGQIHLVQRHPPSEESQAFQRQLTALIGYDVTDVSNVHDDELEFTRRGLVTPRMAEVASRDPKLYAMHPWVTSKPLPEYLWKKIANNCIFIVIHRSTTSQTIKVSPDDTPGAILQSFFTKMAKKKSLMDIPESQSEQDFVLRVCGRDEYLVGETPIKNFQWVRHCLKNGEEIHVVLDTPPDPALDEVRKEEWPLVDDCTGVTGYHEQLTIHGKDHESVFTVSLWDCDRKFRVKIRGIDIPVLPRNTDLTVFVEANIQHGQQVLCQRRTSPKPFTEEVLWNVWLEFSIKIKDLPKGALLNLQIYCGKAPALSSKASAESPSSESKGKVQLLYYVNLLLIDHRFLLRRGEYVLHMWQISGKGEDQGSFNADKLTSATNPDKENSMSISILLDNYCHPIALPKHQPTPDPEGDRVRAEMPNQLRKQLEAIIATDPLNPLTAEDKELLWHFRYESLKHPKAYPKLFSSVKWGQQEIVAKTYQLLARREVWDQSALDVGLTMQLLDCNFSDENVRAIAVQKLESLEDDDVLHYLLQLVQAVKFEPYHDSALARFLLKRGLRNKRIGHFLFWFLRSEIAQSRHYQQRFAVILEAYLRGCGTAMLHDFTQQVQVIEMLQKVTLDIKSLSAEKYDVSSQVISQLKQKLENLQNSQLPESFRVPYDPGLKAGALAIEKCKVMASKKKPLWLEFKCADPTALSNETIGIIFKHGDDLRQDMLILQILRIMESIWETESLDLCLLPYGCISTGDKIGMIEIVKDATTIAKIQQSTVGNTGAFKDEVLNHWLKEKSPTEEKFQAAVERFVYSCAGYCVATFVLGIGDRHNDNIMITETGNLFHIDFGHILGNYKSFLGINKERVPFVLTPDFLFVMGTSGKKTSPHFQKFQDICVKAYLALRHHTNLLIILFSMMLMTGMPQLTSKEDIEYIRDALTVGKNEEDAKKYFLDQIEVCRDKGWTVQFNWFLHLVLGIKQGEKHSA
How it was run: as §1

Human PI3K alpha = target: T3, Human PI3K alpha (Homo sapiens, UniProt P42336); assay: Human PI3K alpha enzyme assay (HTRF); conditions: for inhibition at 1.1 µM: read-out: p110 alpha Percent Inhibition
T3 construct: His (N); host or cells: SF9 insect cells (baculovirus)
T3 sequence (P42336 whole entry): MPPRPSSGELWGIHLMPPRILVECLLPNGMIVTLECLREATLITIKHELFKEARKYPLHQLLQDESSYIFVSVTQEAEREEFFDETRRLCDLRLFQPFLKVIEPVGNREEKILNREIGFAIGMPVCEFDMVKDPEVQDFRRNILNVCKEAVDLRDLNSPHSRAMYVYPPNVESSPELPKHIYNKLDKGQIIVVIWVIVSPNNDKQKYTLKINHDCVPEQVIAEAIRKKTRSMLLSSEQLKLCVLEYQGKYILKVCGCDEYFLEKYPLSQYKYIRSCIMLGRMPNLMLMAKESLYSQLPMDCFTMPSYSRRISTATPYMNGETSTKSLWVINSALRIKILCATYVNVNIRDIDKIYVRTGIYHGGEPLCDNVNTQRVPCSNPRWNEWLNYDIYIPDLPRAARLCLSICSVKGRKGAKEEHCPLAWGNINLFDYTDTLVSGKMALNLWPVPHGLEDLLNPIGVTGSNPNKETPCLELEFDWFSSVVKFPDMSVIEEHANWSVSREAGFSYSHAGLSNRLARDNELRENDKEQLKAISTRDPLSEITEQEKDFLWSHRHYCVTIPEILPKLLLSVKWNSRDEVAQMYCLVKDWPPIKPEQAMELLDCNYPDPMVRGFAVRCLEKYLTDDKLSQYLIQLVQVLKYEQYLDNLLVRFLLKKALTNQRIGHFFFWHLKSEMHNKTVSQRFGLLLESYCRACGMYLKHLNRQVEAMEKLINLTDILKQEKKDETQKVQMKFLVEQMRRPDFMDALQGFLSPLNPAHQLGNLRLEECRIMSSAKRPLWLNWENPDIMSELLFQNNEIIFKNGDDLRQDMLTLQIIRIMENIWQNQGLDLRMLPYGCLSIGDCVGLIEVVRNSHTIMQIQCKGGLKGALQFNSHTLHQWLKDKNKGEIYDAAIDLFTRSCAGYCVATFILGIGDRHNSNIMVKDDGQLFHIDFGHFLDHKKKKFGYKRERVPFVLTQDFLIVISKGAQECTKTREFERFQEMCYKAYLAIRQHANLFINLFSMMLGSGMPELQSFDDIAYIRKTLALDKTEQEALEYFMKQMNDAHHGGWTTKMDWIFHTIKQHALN
T3 sequence (P27986 whole entry partner): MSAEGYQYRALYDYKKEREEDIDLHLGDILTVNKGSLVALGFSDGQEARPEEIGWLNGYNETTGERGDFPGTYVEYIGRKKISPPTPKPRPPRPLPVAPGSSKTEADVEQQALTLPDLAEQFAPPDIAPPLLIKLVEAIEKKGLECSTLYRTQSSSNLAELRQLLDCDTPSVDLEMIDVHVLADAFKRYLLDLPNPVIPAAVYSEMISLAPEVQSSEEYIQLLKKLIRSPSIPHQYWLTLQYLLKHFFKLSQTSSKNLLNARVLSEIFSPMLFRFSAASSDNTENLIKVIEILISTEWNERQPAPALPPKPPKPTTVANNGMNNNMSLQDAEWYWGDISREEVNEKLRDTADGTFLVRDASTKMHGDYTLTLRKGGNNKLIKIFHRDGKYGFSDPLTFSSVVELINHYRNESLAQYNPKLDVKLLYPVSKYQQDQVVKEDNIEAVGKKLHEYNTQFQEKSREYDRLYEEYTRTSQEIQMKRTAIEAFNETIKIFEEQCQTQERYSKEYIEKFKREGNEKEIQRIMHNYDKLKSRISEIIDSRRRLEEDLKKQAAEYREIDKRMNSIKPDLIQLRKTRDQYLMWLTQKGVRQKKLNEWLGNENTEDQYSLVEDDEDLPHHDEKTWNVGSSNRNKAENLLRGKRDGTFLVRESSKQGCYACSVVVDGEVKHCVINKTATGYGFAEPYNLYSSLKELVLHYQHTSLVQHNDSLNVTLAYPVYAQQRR

Human PI3K beta = target: T4, Human PI3K beta (Homo sapiens, UniProt P42338); assay: Human PI3K beta enzyme assay (HTRF); conditions: for inhibition at 1.1 µM: read-out: p110 beta Percent Inhibition
T4 construct: His (N); host or cells: SF9 insect cells (baculovirus)
T4 sequence (P42338 whole entry): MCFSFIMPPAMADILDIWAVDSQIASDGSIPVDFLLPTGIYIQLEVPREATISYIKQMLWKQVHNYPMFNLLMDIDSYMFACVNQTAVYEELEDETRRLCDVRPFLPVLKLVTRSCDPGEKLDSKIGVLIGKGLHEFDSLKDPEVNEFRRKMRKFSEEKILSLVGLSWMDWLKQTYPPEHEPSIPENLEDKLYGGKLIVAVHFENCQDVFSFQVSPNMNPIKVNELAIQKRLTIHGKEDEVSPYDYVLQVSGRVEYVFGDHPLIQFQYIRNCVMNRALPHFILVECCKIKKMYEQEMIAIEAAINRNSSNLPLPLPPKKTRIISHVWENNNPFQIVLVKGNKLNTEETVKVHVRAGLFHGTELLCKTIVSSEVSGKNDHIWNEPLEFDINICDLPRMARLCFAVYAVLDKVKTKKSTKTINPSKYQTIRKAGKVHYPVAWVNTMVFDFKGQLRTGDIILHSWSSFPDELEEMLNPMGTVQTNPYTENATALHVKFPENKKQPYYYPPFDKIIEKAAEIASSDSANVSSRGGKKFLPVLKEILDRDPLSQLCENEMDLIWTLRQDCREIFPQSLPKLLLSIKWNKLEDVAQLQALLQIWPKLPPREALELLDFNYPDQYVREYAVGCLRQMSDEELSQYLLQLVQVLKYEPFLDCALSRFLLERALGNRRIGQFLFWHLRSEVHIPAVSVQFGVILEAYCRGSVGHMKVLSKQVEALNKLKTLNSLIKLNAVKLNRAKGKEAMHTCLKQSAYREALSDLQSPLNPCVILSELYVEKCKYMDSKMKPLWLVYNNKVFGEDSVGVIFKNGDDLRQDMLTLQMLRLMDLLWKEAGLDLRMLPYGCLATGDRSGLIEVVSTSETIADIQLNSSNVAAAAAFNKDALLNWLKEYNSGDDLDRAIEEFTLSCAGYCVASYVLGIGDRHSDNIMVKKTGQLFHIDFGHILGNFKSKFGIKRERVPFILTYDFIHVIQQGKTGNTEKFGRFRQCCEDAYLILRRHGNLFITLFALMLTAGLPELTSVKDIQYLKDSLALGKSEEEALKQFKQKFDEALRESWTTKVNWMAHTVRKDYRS
T4 sequence (P27986 whole entry partner): as the sequence (P27986 whole entry partner) above
How it was run: as §1

[1] = concentration not given, b1389 states 1.0 μM for PI3K δ and γ
[2] = concentration not given, b1387 states 1.1 μM for PI3K α and β

T1 sequence (O00329 whole entry): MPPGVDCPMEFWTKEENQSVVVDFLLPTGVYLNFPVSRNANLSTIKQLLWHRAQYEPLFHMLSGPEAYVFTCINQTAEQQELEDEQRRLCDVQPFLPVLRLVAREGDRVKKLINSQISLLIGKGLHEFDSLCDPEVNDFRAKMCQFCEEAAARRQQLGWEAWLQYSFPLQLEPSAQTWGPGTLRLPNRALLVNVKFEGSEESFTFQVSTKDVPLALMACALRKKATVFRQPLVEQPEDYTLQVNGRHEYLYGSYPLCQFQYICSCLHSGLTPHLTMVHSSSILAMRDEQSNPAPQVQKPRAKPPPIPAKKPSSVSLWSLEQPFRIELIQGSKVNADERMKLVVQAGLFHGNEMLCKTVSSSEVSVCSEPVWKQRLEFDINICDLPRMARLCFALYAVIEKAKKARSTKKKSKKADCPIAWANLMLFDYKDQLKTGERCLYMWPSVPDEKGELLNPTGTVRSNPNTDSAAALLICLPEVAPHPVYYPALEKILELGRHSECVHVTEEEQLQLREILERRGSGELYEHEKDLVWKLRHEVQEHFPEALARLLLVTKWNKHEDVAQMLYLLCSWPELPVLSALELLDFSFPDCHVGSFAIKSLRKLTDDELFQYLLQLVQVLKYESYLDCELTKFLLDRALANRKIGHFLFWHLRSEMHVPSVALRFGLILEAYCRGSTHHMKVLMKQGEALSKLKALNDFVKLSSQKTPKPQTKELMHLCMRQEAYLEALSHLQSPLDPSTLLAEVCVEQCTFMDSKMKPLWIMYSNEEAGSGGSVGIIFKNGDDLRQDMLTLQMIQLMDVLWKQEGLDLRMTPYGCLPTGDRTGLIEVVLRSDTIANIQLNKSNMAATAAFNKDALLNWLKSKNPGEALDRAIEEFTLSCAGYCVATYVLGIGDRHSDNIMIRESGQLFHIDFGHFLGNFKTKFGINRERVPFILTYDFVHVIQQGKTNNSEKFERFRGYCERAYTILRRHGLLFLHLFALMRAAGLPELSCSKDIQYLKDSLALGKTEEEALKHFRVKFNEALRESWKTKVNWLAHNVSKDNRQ
T1 sequence (P27986 whole entry partner): as the sequence (P27986 whole entry partner) above

Compound	inhibition at 1 µM (Human PI3K delta; [1])	inhibition at 1 µM (Human PI3K gamma; [1])	inhibition at 1.1 µM (Human PI3K alpha; [2])	inhibition at 1.1 µM (Human PI3K beta; [2])	other results
O=C(O)Cc1sc(N2CCOCC2)nc1Cc1ccc(Cl)c(Cl)c1 [Compound 348, 2-(4-(3,4-dichlorobenzyl)-2-morpholinothiazol-5-yl)acetic acid]	56%	4%	4%	63%	
Clc1cccc(Cc2nc(-c3ccncc3)sc2-c2nnc[nH]2)c1 [Compound 137]	30%	12%	12%	54%	
CC(c1ccc2cc(F)ccc2c1)c1c(C(=O)O)sc(N2CCOCC2)c1C#N (stereo not drawn) [Compound 326]	96%	56%		108%	p110 alpha Percent Inhibition (Human PI3K alpha; [2]): 79%
CC(=O)Nc1cc(-c2cc(C(c3ccc(Cl)cc3)N3CC(N)C3)c(-c3nnc[nH]3)s2)ccn1 (stereo not drawn) [Compound 200]	111%	60%	101%	118%	
Cc1ccc(C(O)c2cc(-c3ccncc3)sc2-c2nnc[nH]2)s1 (stereo not drawn) [Compound 271]	63%	8%	35%	82%	
O=C(O)c1sc(-c2ccncc2)cc1Cc1ccc2ccccc2c1 [Compound 210, 3-(2-naphthylmethyl)-5-pyridin-4-ylthiophene-2-carboxylic acid]	92%	68%	52%	110%	
CC(=O)Nc1cc(-c2cc(C(c3ccc(Cl)cc3)n3cccn3)c(-c3nnc[nH]3)s2)ccn1 (stereo not drawn) [Compound 206]	106%	11%	90%	96%	
CC(=O)Nc1cc(-c2cc(C(NC(C)C)c3ccc(Cl)cc3)c(-c3nnc[nH]3)s2)ccn1 (stereo not drawn) [Compound 244]	101%	14%	77%	101%	
CC(=O)Nc1cc(-c2cc(C(NCC3CNC3)c3ccc(Cl)cc3)c(-c3nnc[nH]3)s2)ccn1 (stereo not drawn) [Compound 129]	109%	32%	83%	106%	
N#Cc1c(N2CCOCC2)sc(C(=O)O)c1C(F)c1ccc2ccccc2c1 (stereo not drawn) [Compound 364]					p110 delta Percent Inhibition (Human PI3K delta; [1]): 101%; p110 gamma Percent Inhibition (Human PI3K gamma; [1]): 56%; p110 alpha Percent Inhibition (Human PI3K alpha; [2]): 88%; p110 beta Percent Inhibition (Human PI3K beta; [2]): 109%
OC(c1cc(-c2ccncc2)sc1-c1nnc[nH]1)c1c(F)cccc1Cl (stereo not drawn) [Compound 275]	44%	14%	17%	47%	
OC(c1cc2ccccc2cc1F)c1cc(-c2ccncc2)sc1-c1nnc[nH]1 (stereo not drawn) [Compound 284]					p110 delta Percent Inhibition (Human PI3K delta; [1]): 110%; p110 gamma Percent Inhibition (Human PI3K gamma; [1]): 66%; p110 alpha Percent Inhibition (Human PI3K alpha; [2]): 39%; p110 beta Percent Inhibition (Human PI3K beta; [2]): 114%
OC(c1ccc(-c2ccncc2)cc1)c1cc(-c2ccncc2)sc1-c1nnc[nH]1 (stereo not drawn) [Compound 207]	51%	9%	27%	83%	
CC(=O)Nc1cc(-c2cc(C(c3ccc(Cl)cc3)N3CCN(CC(F)(F)F)CC3)c(-c3nnc[nH]3)s2)ccn1 (stereo not drawn) [Compound 157]	101%	7%	55%	68%	
Clc1ccc(Cc2nc(-c3ccncc3)sc2-c2nnn[nH]2)cc1 [Compound 190, 4-(4-chlorobenzyl)-2-(pyridin-4-yl)-5-(1H-tetrazol-5-yl)thiazole]	33%	7%	3%	60%	
OC(c1cc(F)ccc1F)c1cc(-c2ccncc2)sc1-c1nnc[nH]1 (stereo not drawn) [Compound 266]	52%	8%	36%	90%	
COc1ccc(C(O)c2cc(-c3ccncc3)sc2-c2nnc[nH]2)cc1Cl (stereo not drawn) [Compound 191]	90%	30%	26%	97%	
CC(=O)Nc1cc(-c2cc(C(NCC3CCCC3)c3ccc(Cl)cc3)c(-c3nnc[nH]3)s2)ccn1 (stereo not drawn) [Compound 240]	98%	8%	52%	79%	

Compound	inhibition at 1 µM (Human PI3K delta; [1])	inhibition at 1 µM (Human PI3K gamma; [1])	inhibition at 1.1 µM (Human PI3K alpha; [2])	inhibition at 1.1 µM (Human PI3K beta; [2])	other results
Cc1ccc(C(O)c2cc(-c3ccncc3)sc2-c2nnc[nH]2)cc1C (stereo not drawn) [Compound 174]	59%	8%	15%	70%	
O=C(O)c1sc(N2CCOCC2)nc1Cc1ccc2cccc(F)c2c1 [Compound 299]	108%	42%	39%	109%	
CC(c1ccc2ccccc2c1)c1c(C(=O)O)sc(N2CCOCC2)c1C#N (stereo not drawn) [Compound 333]	74%	55%	63%	95%	
COC(=O)Nc1cc(-c2sc(-c3nnc[nH]3)c(C(O)c3ccc(Cl)cc3)c2C#N)ccn1 (stereo not drawn) [Compound 195, Methyl {4-[4-[(4-chlorophenyl)(hydroxy)methyl]-3-cyano-5-(4H-1,2,4-triazol-3-yl)-2-thienyl]pyridin-2-yl}carbamate]	88%	8%	52%	74%	
CS(=O)(=O)NC(c1ccc(Cl)cc1)c1c(C(=O)O)sc(N2CCOCC2)c1C#N (stereo not drawn) [Compound 317]	70%	29%	20%	77%	
O=C(Nc1cc(-c2cc(C(c3ccc(Cl)cc3)N3CCNCC3)c(-c3nnc[nH]3)s2)ccn1)C1CC1 (stereo not drawn) [Compound 146]	110%	23%	67%	103%	
CC(c1ccc2ccccc2c1)c1c(C(=O)O)sc(N2CCOCC2)c1C#N (stereo not drawn) [Compound 367, 4-cyano-5-(morpholin-4-yl)-3-[1-(2-naphthyl)ethyl]thiophene-2-carboxylic acid]					inhibition at 1 µM (Human PI3K delta): 116%; inhibition at 1 µM (Human PI3K gamma): 72%; inhibition at 1.1 µM (Human PI3K alpha): 99%; inhibition at 1.1 µM (Human PI3K beta): 110%
N#Cc1c(N2CCOCC2)sc(C(=O)O)c1Cc1ccc2cc(F)ccc2c1 [Compound 315]	114%	75%	97%	110%	
O=C(O)c1sc(N2CCOCC2)nc1Cc1ccc2c(F)cccc2c1 [Compound 340]	104%	59%	48%	113%	
CC(=O)Nc1cc(-c2cc(C(c3ccc(Cl)cc3)N3CC[C@@H](CO)C3)c(-c3nc[nH]n3)s2)ccn1 (stereo partly drawn) [Compound 223]	102%	21%	67%	94%	
CS(=O)(=O)NC(=O)c1sc(N2CCOCC2)c(C#N)c1Cc1ccc(Cl)c(Cl)c1 [Compound 352, 4-cyano-3-(3,4-dichlorobenzyl)-N-(methylsulfonyl)-5-morpholinothiophene-2-carboxamide]	84%	14%	18%	85%	
O=C(O)c1sc(N2CCOCC2)nc1Cc1ccc2ccccc2c1F [Compound 319]	113%	50%	59%	105%	
CC(=O)Nc1cc(-c2cc(/C(=C/CCN(C)C)c3ccc(Cl)cc3)c(-c3nnc[nH]3)s2)ccn1 [Compound 225]	84%	51%	51%	52%	
OC(c1ccc(-c2cncnc2)cc1)c1cc(-c2ccncc2)sc1-c1nnc[nH]1 (stereo not drawn) [Compound 236]	48%	10%	11%	53%	
CC(=O)Nc1cc(-c2cc(C(c3ccc(Cl)cc3)n3ccnc3)c(-c3nnc[nH]3)s2)ccn1 (stereo not drawn) [Compound 167]	110%	26%	105%	103%	
CC(=O)Nc1cc(-c2cc(C(c3ccc(Cl)cc3)N3CC[C@H](CO)C3)c(-c3nnc[nH]3)s2)ccn1 (stereo partly drawn) [Compound 269]	101%	15%	72%	100%	
N#Cc1c(N2CCOCC2)sc(C(=O)O)c1C(CCF)c1ccc2ccccc2c1 (stereo not drawn) [Compound 322]				104%	p110 delta Percent Inhibition (Human PI3K delta; [1]): 67%; p110 gamma Percent Inhibition (Human PI3K gamma; [1]): 28%; p110 alpha Percent Inhibition (Human PI3K alpha; [2]): 64%
CC(=O)Nc1cc(-c2cc([C@H](c3ccc(Cl)cc3)N(C)C)c(-c3nnc[nH]3)s2)ccn1 (single isomer, unassigned) [Compound 261]	105%	33%	79%	113%	

From US8796268B2, “Heteroaryls and uses thereof” (Millennium Pharmaceuticals, Inc., priority 2010, dated 2014)
